Test results reported in patent publication US20070010498A1, “Method for reducing blood loss associated with cardio-pulmonary bypass surgery” (priority 2005, published 2007).

Experiment: plasma concentrations of COL-3 in humans
Format: in vivo
Details: dose of about 10 to about 20 mg/day

NC(=O)C1=C(O)C[C@@H]2C[C@@H]3Cc4cccc(O)c4C(=O)C3=C(O)[C@]2(O)C1=O [COL-3, 6-demethyl-6-deoxy-4-de(dimethylamino)tetracycline]
plasma concentrations: about 1.0 μg/ml
